Data as given in PubChem BioAssay AID248 (DTP/NCI, 2004).
Several values for one entry are separate records, joined by “and”; a condition that tells them apart may be missing. Equal values may be shown once. Inconclusive results and toxic doses are left out. Cut-off read from the data, not from the text of the source: active = T/C of 150% or more; inactive = T/C below 125%.

System: L1210 leukemia ip in BDF1 mice, survival T/C
Assay: NCI In Vivo Anticancer Drug Screen. Data for tumor model L1210 Leukemia (intraperitoneal) in B6D2F1 (BDF1) mice
Conditions: endpoint: mean survival time, higher = longer survival
Outline: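 Mice bearing the transplanted tumor received compound or vehicle. Survival of the treated group was divided by that of the vehicle-treated control group to give the ratio.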

[1] = dose: 100.0 mg/kg/injection, schedule: Q04DX002 (ip), vehicle: saline with Tween-80
[2] = dose: 200.0 mg/kg/injection, schedule: Q04DX002 (ip), vehicle: saline with Tween-80
[3] = dose: 100.0 mg/kg/injection, schedule: Q01DX009 (ip), vehicle: saline
[4] = dose: 25.0 mg/kg/injection, schedule: Q01DX009 (ip), vehicle: Klucel (hydroxypropylcellulose) (HPC)
[5] = dose: 50.0 mg/kg/injection, schedule: Q01DX001 (ip), vehicle: saline
[6] = dose: 100.0 mg/kg/injection, schedule: Q01DX001 (ip), vehicle: saline
[7] = dose: 200.0 mg/kg/injection, schedule: Q01DX001 (ip), vehicle: saline
[8] = dose: 200.0 mg/kg/injection, schedule: Q01DX009 (ip), vehicle: saline
[9] = dose: 400.0 mg/kg/injection, schedule: Q01DX001 (ip), vehicle: saline
[10] = dose: 400.0 mg/kg/injection, schedule: Q01DX009 (ip), vehicle: saline
[11] = dose: 100.0 mg/kg/injection, schedule: Q01DX001 (ip), vehicle: Klucel (hydroxypropylcellulose) (HPC)
[12] = dose: 200.0 mg/kg/injection, schedule: Q01DX001 (ip), vehicle: Klucel (hydroxypropylcellulose) (HPC)
[13] = dose: 400.0 mg/kg/injection, schedule: Q01DX001 (ip), vehicle: Klucel (hydroxypropylcellulose) (HPC)
[14] = dose: 100.0 mg/kg/injection, schedule: Q01DX001 (ip), vehicle: other
[15] = dose: 100.0 mg/kg/injection, schedule: Q01DX009 (ip), vehicle: saline with Tween-80
[16] = dose: 200.0 mg/kg/injection, schedule: Q01DX009 (ip), vehicle: saline with Tween-80
[17] = dose: 400.0 mg/kg/injection, schedule: Q01DX009 (ip), vehicle: saline with Tween-80
[18] = dose: 25.0 mg/kg/injection, schedule: Q01DX009 (ip), vehicle: saline with Tween-80

Measured: T/C

O=C(C1=CN(CC(O)c2ccccc2)CCC1)c1cc2ccccc2n1S(=O)(=O)c1ccccc1 (configuration not stated)
inactive: [1] 97 % of control | [2] 94 % of control | dose: 400.0 mg/kg/injection, schedule: Q04DX002 (ip), vehicle: saline with Tween-80 94 % of control

N=Nc1c(O)[nH]c2ccccc12
inactive: dose: 100.0 mg/kg/injection, schedule: Q04DX002 (ip), vehicle: Klucel (hydroxypropylcellulose) (HPC) 92 % of control | dose: 200.0 mg/kg/injection, schedule: Q04DX002 (ip), vehicle: Klucel (hydroxypropylcellulose) (HPC) 96 % of control | dose: 400.0 mg/kg/injection, schedule: Q04DX002 (ip), vehicle: Klucel (hydroxypropylcellulose) (HPC) 92 % of control

CC(C)(N)CNC(C)(C)CO
inactive: dose: 50.0 mg/kg/injection, schedule: Q01DX009 (ip), vehicle: saline 102 % of control | [3] 102 % of control

CC1(C)C(=O)N(Cl)C(=O)N1Cl
inactive: dose: 3.12 mg/kg/injection, schedule: Q01DX009 (ip), vehicle: Klucel (hydroxypropylcellulose) (HPC) 90 % of control | dose: 3.13 mg/kg/injection, schedule: Q01DX001 (ip), vehicle: saline sonified 90 % of control | dose: 3.13 mg/kg/injection, schedule: Q01DX009 (ip), vehicle: saline 99 % of control | dose: 6.25 mg/kg/injection, schedule: Q01DX001 (ip), vehicle: saline sonified 97 % of control | dose: 6.25 mg/kg/injection, schedule: Q01DX009 (ip), vehicle: Klucel (hydroxypropylcellulose) (HPC) 90 % of control | dose: 6.25 mg/kg/injection, schedule: Q01DX009 (ip), vehicle: saline 95 % of control | dose: 12.5 mg/kg/injection, schedule: Q01DX001 (ip), vehicle: saline sonified 95 % of control | dose: 12.5 mg/kg/injection, schedule: Q01DX009 (ip), vehicle: saline 99 % of control | dose: 12.5 mg/kg/injection, schedule: Q04DX002 (ip), vehicle: Klucel (hydroxypropylcellulose) (HPC) 97 % of control | [4] 91 % of control | dose: 25.0 mg/kg/injection, schedule: Q04DX002 (ip), vehicle: Klucel (hydroxypropylcellulose) (HPC) 94 % of control

Cc1nn(C2CC(O)C(O)C(CO)O2)c(=O)[nH]c1=O (configuration not stated)
inactive: [5] 93 % of control | [6] 96 % of control | [3] 92 % of control | [7] 104 % of control | [8] 95 % of control | [9] 98 % of control | [10] 98 % of control

CC(=O)c1ccc(OCC(=O)O)cc1
inactive: [11] 97 % of control | [12] 97 % of control | [13] 101 % of control

C=CCN1CCC(C(=O)CC)(c2ccccc2)CC1
inactive: dose: 12.5 mg/kg/injection, schedule: Q01DX009 (ip), vehicle: Klucel (hydroxypropylcellulose) (HPC) 100 % of control | [4] 98 % of control | dose: 50.0 mg/kg/injection, schedule: Q01DX009 (ip), vehicle: Klucel (hydroxypropylcellulose) (HPC) 106 % of control

Cc1cn(-c2ccccc2)c(=O)[nH]c1=O
inactive: [14] 112 % of control

Cc1cc(=O)oc2cc(OC(=O)Nc3ccc(Cl)cc3C(F)(F)F)ccc12
inactive: [15] 97 % of control | [16] 97 % of control | [17] 92 % of control

CC(C)(O)C(=O)NC/C=C/c1ccccc1
inactive: [18] 93 % of control | dose: 50.0 mg/kg/injection, schedule: Q01DX009 (ip), vehicle: saline with Tween-80 93 % of control | [15] 93 % of control

O=C(O)c1ccc(S(=O)(=O)F)c(Cl)c1
inactive: [15] 100 % of control | [16] 102 % of control | [17] 89 % of control

NCCSS(=O)(=O)CCN
inactive: [3] 105 % of control | dose: 100.0 mg/kg/injection, schedule: Q04DX003 (ip), vehicle: saline 106 % of control | [8] 107 % of control | dose: 200.0 mg/kg/injection, schedule: Q04DX003 (ip), vehicle: saline 107 % of control | [10] 100 % of control | dose: 400.0 mg/kg/injection, schedule: Q04DX003 (ip), vehicle: saline 100 % of control

CCCC/C=C(\C)CCCCCCCCC (tested in a mixture with another compound)
inactive: dose: 100.0 mg/kg/injection, schedule: Q04DX003 (ip), vehicle: saline with Tween-80 90 % of control | dose: 200.0 mg/kg/injection, schedule: Q04DX003 (ip), vehicle: saline with Tween-80 89 % of control | dose: 400.0 mg/kg/injection, schedule: Q04DX003 (ip), vehicle: saline with Tween-80 98 % of control

c1ccc2n[nH]nc2c1
inactive: dose: 50.0 mg/kg/injection, schedule: Q04DX002 (ip), vehicle: saline with Tween-80 95 % of control | [1] 106 % of control | [2] 98 % of control

COc1ccccc1CCC=O
inactive: [5] 96 % of control | [6] 96 % of control | [7] 102 % of control | [9] 102 % of control

O=C(Oc1cccc(OC(=O)c2ccc(Cl)cc2)c1)c1ccc(Cl)cc1
inactive: [11] 100 % of control | dose: 100.0 mg/kg/injection, schedule: Q01DX009 (ip), vehicle: Klucel (hydroxypropylcellulose) (HPC) 112 % of control | [12] 100 % of control | dose: 200.0 mg/kg/injection, schedule: Q01DX009 (ip), vehicle: Klucel (hydroxypropylcellulose) (HPC) 110 % of control | [13] 93 % of control | dose: 400.0 mg/kg/injection, schedule: Q01DX009 (ip), vehicle: Klucel (hydroxypropylcellulose) (HPC) 108 % of control

Nn1c(-c2cccc(O)c2)nnc1-c1cccc(O)c1
inactive: [6] 104 % of control | [7] 95 % of control | [9] 101 % of control

OC(c1nc2ccccc2[nH]1)C(O)c1nc2ccccc2[nH]1 (configuration not stated)
inactive: dose: 75.0 mg/kg/injection, schedule: Q01DX001 (ip), vehicle: saline 102 % of control | dose: 150.0 mg/kg/injection, schedule: Q01DX001 (ip), vehicle: saline 109 % of control | dose: 300.0 mg/kg/injection, schedule: Q01DX001 (ip), vehicle: saline 102 % of control

CC1(C)CCC(C)(C)C2CC3C(CC21)C(C)(C)CCC3(C)C (configuration not stated)
inactive: [6] 109 % of control | [7] 112 % of control | [9] 100 % of control

CC1=C2[C@H]3OC(=O)[C@H](C)[C@@H]3CC[C@@]2(C)C=CC1=O
inactive: [14] 103 % of control | dose: 200.0 mg/kg/injection, schedule: Q01DX001 (ip), vehicle: other 95 % of control

BrCC1OCCCO1
inactive: [18] 96 % of control | dose: 25.0 mg/kg/injection, schedule: Q04DX002 (ip), vehicle: saline 100 % of control | dose: 50.0 mg/kg/injection, schedule: Q04DX002 (ip), vehicle: saline 118 % of control | [15] 114 % of control | [1] 117 % of control | dose: 100.0 mg/kg/injection, schedule: Q04DX002 (ip), vehicle: saline 100 % of control

O=[N+]([O-])c1cc(Br)cc2c1nc(Cl)c1ccccc12
inactive: dose: 100.0 mg/kg/injection, schedule: Q04DX003 (ip), vehicle: Klucel (hydroxypropylcellulose) (HPC) 98 % of control | dose: 200.0 mg/kg/injection, schedule: Q04DX003 (ip), vehicle: Klucel (hydroxypropylcellulose) (HPC) 101 % of control | dose: 400.0 mg/kg/injection, schedule: Q04DX003 (ip), vehicle: Klucel (hydroxypropylcellulose) (HPC) 98 % of control

C=CC[N+](CC=C)(CC=C)CC[N+](CC=C)(CC=C)CC=C
inactive: dose: 6.25 mg/kg/injection, schedule: Q01DX009 (ip), vehicle: water 109 % of control | dose: 12.5 mg/kg/injection, schedule: Q01DX009 (ip), vehicle: water 111 % of control | dose: 25.0 mg/kg/injection, schedule: Q01DX009 (ip), vehicle: water 96 % of control and 90 % of control | dose: 50.0 mg/kg/injection, schedule: Q01DX009 (ip), vehicle: water 106 % of control and 87 % of control and 89 % of control | dose: 100.0 mg/kg/injection, schedule: Q01DX009 (ip), vehicle: water 100 % of control

CC1=CC=CC(C)(Cc2ccc(-c3ccc(CC4(C)C=CC=C(C)C4=O)cc3)cc2)C1=O (configuration not stated)
inactive: dose: 100.0 mg/kg/injection, schedule: Q01DX001 (ip), vehicle: saline sonified 92 % of control | dose: 200.0 mg/kg/injection, schedule: Q01DX001 (ip), vehicle: saline sonified 90 % of control | dose: 400.0 mg/kg/injection, schedule: Q01DX001 (ip), vehicle: saline sonified 95 % of control
